PubChem BioAssay AID256 (DTP/NCI, 2004)
“And” between values parts separate entries of the source, which are not always exact repeats. Equal values may be shown once. Toxic doses and inconclusive results are not listed. Rule for the calls: active = survival T/C of 150% or more; inactive = T/C below 125% in these data.

System: CD2F1 mice, L1210 leukemia ip, survival T/C
Assay: NCI In Vivo Anticancer Drug Screen. Data for tumor model L1210 Leukemia (intraperitoneal) in CD2F1 (CDF1) mice
Conditions: higher = longer survival
Outline: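 Antitumor effect is scored in animals hosting a serially transplanted tumor. Values compare compound-dosed animals against vehicle-only controls as a simple quotient.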

[1] = endpoint: mean survival time, dose: 100.0 mg/kg/injection, schedule: Q01DX001 (ip), vehicle: saline with Tween-80
[2] = endpoint: mean survival time, dose: 12.5 mg/kg/injection, schedule: Q01DX009 (ip), vehicle: saline sonified
[3] = endpoint: mean survival time, dose: 25.0 mg/kg/injection, schedule: Q01DX009 (ip), vehicle: saline with Tween-80
[4] = endpoint: mean survival time, dose: 50.0 mg/kg/injection, schedule: Q01DX009 (ip), vehicle: saline with Tween-80
[5] = endpoint: mean survival time, dose: 100.0 mg/kg/injection, schedule: Q01DX009 (ip), vehicle: saline with Tween-80
[6] = endpoint: mean survival time, dose: 100.0 mg/kg/injection, schedule: Q04DX003 (ip), vehicle: saline with Tween-80
[7] = endpoint: mean survival time, dose: 200.0 mg/kg/injection, schedule: Q04DX003 (ip), vehicle: saline with Tween-80
[8] = endpoint: mean survival time, dose: 400.0 mg/kg/injection, schedule: Q04DX003 (ip), vehicle: saline with Tween-80
[9] = endpoint: mean survival time, dose: 100.0 mg/kg/injection, schedule: Q04DX002 (ip), vehicle: saline with Tween-80
[10] = endpoint: mean survival time, dose: 200.0 mg/kg/injection, schedule: Q04DX002 (ip), vehicle: saline with Tween-80
[11] = endpoint: mean survival time, dose: 400.0 mg/kg/injection, schedule: Q04DX002 (ip), vehicle: saline with Tween-80

Measured: T/C

CC(=O)Nc1nc(Br)c2ccccc2c1-c1ccc(N(CCCl)CCCl)cc1
inactive: endpoint: mean survival time, dose: 3.13 mg/kg/injection, schedule: Q04DX003 (ip), vehicle: DMSO 104 % of control | endpoint: mean survival time, dose: 6.25 mg/kg/injection, schedule: Q04DX003 (ip), vehicle: DMSO 102 % of control | endpoint: mean survival time, dose: 12.5 mg/kg/injection, schedule: Q04DX003 (ip), vehicle: DMSO 101 % of control | endpoint: mean survival time, dose: 25.0 mg/kg/injection, schedule: Q04DX003 (ip), vehicle: DMSO 98 % of control

COc1ccc(C(C)C(O)c2ccccc2)cc1 (centres undefined)
inactive: endpoint: mean survival time, dose: 100.0 mg/kg/injection, schedule: Q04DX003 (ip), vehicle: saline 103 % of control | endpoint: mean survival time, dose: 200.0 mg/kg/injection, schedule: Q04DX003 (ip), vehicle: saline 108 % of control | endpoint: mean survival time, dose: 400.0 mg/kg/injection, schedule: Q04DX003 (ip), vehicle: saline 102 % of control

O=C1CN=C(c2ccccc2)O1
inactive: endpoint: median survival time, dose: 50.0 mg/kg/injection, schedule: Q04DX002 (ip), vehicle: saline with Tween-80 100 % of control | endpoint: median survival time, dose: 100.0 mg/kg/injection, schedule: Q04DX002 (ip), vehicle: saline with Tween-80 100 % of control | endpoint: median survival time, dose: 200.0 mg/kg/injection, schedule: Q04DX002 (ip), vehicle: saline with Tween-80 111 % of control | endpoint: median survival time, dose: 400.0 mg/kg/injection, schedule: Q04DX002 (ip), vehicle: saline with Tween-80 100 % of control

CC(C)OC(=O)Nc1cc(F)ccc1F
inactive: endpoint: mean survival time, dose: 100.0 mg/kg/injection, schedule: Q01DX009 (ip), vehicle: other 97 % of control | endpoint: mean survival time, dose: 200.0 mg/kg/injection, schedule: Q01DX009 (ip), vehicle: other 94 % of control

O=C(c1ccccc1)C1OC1(CCl)c1ccccc1 (centres undefined)
inactive: [1] 106 % of control | endpoint: mean survival time, dose: 200.0 mg/kg/injection, schedule: Q01DX001 (ip), vehicle: saline with Tween-80 90 % of control | endpoint: mean survival time, dose: 400.0 mg/kg/injection, schedule: Q01DX001 (ip), vehicle: saline with Tween-80 86 % of control

O=S(=O)(SC(Cl)(Cl)Cl)c1ccc(Cl)cc1
inactive: [2] 103 % of control | endpoint: mean survival time, dose: 25.0 mg/kg/injection, schedule: Q01DX009 (ip), vehicle: saline sonified 102 % of control | [3] 103 % of control | endpoint: mean survival time, dose: 50.0 mg/kg/injection, schedule: Q01DX009 (ip), vehicle: saline sonified 102 % of control | [4] 98 % of control | [1] 91 % of control | [5] 98 % of control

Cc1c(N)nc(C(CC(N)=O)NCC(N)C(N)=O)nc1C(=O)NC(C(=O)NC(C)C(O)C(C)C(=O)NC(C(=O)NCCc1nc(-c2nc(C(=O)NCCCNCCCc3ccccn3)cs2)cs1)C(C)O)C(OC1OC(CO)C(O)C(O)C1OC1OC(CO)C(O)C(OC(N)=O)C1O)c1cnc[nH]1 (centres undefined)
inactive: endpoint: mean survival time, dose: 0.2 mg/kg/injection, schedule: Q01DX009 (ip), vehicle: water 101 % of control | endpoint: mean survival time, dose: 0.4 mg/kg/injection, schedule: Q01DX009 (ip), vehicle: water 107 % of control | endpoint: mean survival time, dose: 0.8 mg/kg/injection, schedule: Q01DX009 (ip), vehicle: water 98 % of control | endpoint: mean survival time, dose: 1.6 mg/kg/injection, schedule: Q01DX009 (ip), vehicle: water 104 % of control | endpoint: mean survival time, dose: 3.2 mg/kg/injection, schedule: Q01DX009 (ip), vehicle: water 104 % of control | endpoint: mean survival time, dose: 6.25 mg/kg/injection, schedule: Q01DX009 (ip), vehicle: saline 111 % of control | endpoint: mean survival time, dose: 6.4 mg/kg/injection, schedule: Q01DX009 (ip), vehicle: water 107 % of control | endpoint: mean survival time, dose: 12.5 mg/kg/injection, schedule: Q01DX009 (ip), vehicle: saline 103 % of control | endpoint: mean survival time, dose: 25.0 mg/kg/injection, schedule: Q01DX009 (ip), vehicle: saline 108 % of control | endpoint: mean survival time, dose: 50.0 mg/kg/injection, schedule: Q01DX009 (ip), vehicle: saline 105 % of control

N#Cc1c(-c2ccccc2)c(-c2ccccc2)nn(CC(=O)O)c1=O
inactive: endpoint: median survival time, dose: 25.0 mg/kg/injection, schedule: Q01DX005 (ip), vehicle: distilled water + Tween-80 105 % of control | endpoint: median survival time, dose: 50.0 mg/kg/injection, schedule: Q01DX005 (ip), vehicle: distilled water + Tween-80 90 % of control | endpoint: median survival time, dose: 100.0 mg/kg/injection, schedule: Q01DX005 (ip), vehicle: distilled water + Tween-80 95 % of control | endpoint: median survival time, dose: 200.0 mg/kg/injection, schedule: Q01DX005 (ip), vehicle: distilled water + Tween-80 92 % of control

COc1ccccc1NC(=O)Nc1cccc(Cl)c1
inactive: [5] 95 % of control | [6] 94 % of control | endpoint: mean survival time, dose: 200.0 mg/kg/injection, schedule: Q01DX009 (ip), vehicle: saline with Tween-80 93 % of control | [7] 97 % of control | endpoint: mean survival time, dose: 400.0 mg/kg/injection, schedule: Q01DX009 (ip), vehicle: saline with Tween-80 88 % of control | [8] 86 % of control

COc1ccncn1
inactive: [9] 98 % of control | [10] 95 % of control | [11] 106 % of control

Nn1cnc2ccccc2c1=O
inactive: endpoint: mean survival time, dose: 100.0 mg/kg/injection, schedule: Q01DX001 (ip), vehicle: saline 101 % of control | endpoint: mean survival time, dose: 200.0 mg/kg/injection, schedule: Q01DX001 (ip), vehicle: saline 102 % of control | endpoint: mean survival time, dose: 400.0 mg/kg/injection, schedule: Q01DX001 (ip), vehicle: saline 102 % of control

CCOC(=O)NC(C#N)=C(Cl)Cl
inactive: [9] 114 % of control | [10] 88 % of control | [11] 100 % of control

O=C1C(=O)c2ccccc2C(O)=C1CC1=C(O)c2ccccc2C(=O)C1=O
inactive: [6] 103 % of control | [7] 101 % of control | [8] 106 % of control

CC(C)(C)c1cc(C(C)(C)C)c(C(=O)O)c(C(C)(C)C)c1Cl
inactive: [6] 101 % of control | [7] 97 % of control | [8] 100 % of control

CC[N+](CC)=c1ccc2nc3c(cc(N)c4ccccc43)oc-2c1
inactive: endpoint: mean survival time, dose: 6.25 mg/kg/injection, schedule: Q01DX009 (ip), vehicle: saline sonified 97 % of control | endpoint: mean survival time, dose: 6.25 mg/kg/injection, schedule: Q04DX003 (ip), vehicle: saline with Tween-80 101 % of control | [2] 104 % of control | endpoint: mean survival time, dose: 12.5 mg/kg/injection, schedule: Q04DX003 (ip), vehicle: saline with Tween-80 101 % of control | endpoint: mean survival time, dose: 25.0 mg/kg/injection, schedule: Q04DX003 (ip), vehicle: saline with Tween-80 98 % of control

COC(=O)C(N)CS (centres undefined)
inactive: [6] 101 % of control | [7] 101 % of control | [8] 106 % of control

CO[C@H](/C(C)=C/C=C/C(C)=C/c1coc(C)n1)[C@H](C)[C@H]1C[C@@H](O)[C@@]2(C)O[C@H]2/C=C/[C@@H](C)[C@@H]2C[C@@H](CC(=O)O2)C[C@H]2O[C@@H]2C(=O)O1
inactive: endpoint: median survival time, dose: 0.5 mg/kg/injection, schedule: Q01DX009 (ip), vehicle: Klucel (hydroxypropylcellulose) (HPC) 112 % of control | endpoint: median survival time, dose: 20.0 micrograms/kg/injection, schedule: Q01DX009 (ip), vehicle: Klucel (hydroxypropylcellulose) (HPC) 114 % of control | endpoint: median survival time, dose: 40.0 micrograms/kg/injection, schedule: Q01DX009 (ip), vehicle: Klucel (hydroxypropylcellulose) (HPC) 123 % of control and 104 % of control | endpoint: median survival time, dose: 80.0 micrograms/kg/injection, schedule: Q01DX009 (ip), vehicle: Klucel (hydroxypropylcellulose) (HPC) 116 % of control | endpoint: median survival time, dose: 160.0 micrograms/kg/injection, schedule: Q01DX009 (ip), vehicle: Klucel (hydroxypropylcellulose) (HPC) 114 % of control

CC(C)CC(CC(C)C)C(=O)C1C2CCC(O2)C1C(=O)C(CC(C)C)CC(C)C (centres undefined)
inactive: endpoint: mean survival time, dose: 25.0 mg/kg/injection, schedule: Q04DX002 (ip), vehicle: saline with Tween-80 88 % of control

COc1ccc(C(=O)NN)cc1
inactive: [3] 115 % of control | [4] 110 % of control | [5] 109 % of control | [6] 101 % of control

O=C1/C(=C/C2CCC3CCCCC3[N-]2)N2CCC1CC2.[Cl][Co][Cl] (centres undefined)
inactive: endpoint: mean survival time, dose: 9.4 mg/kg/injection, schedule: Q04DX003 (ip), vehicle: saline 102 % of control | endpoint: mean survival time, dose: 18.8 mg/kg/injection, schedule: Q04DX003 (ip), vehicle: saline 100 % of control | endpoint: mean survival time, dose: 37.5 mg/kg/injection, schedule: Q04DX003 (ip), vehicle: saline 109 % of control

NC(N)=N/N=C/C/C=N/N=C(N)N
inactive: endpoint: mean survival time, dose: 30.0 mg/kg/injection, schedule: Q01DX009 (ip), vehicle: saline 91 % of control | endpoint: mean survival time, dose: 60.0 mg/kg/injection, schedule: Q01DX009 (ip), vehicle: saline 90 % of control | endpoint: mean survival time, dose: 120.0 mg/kg/injection, schedule: Q01DX009 (ip), vehicle: saline 93 % of control | endpoint: mean survival time, dose: 240.0 mg/kg/injection, schedule: Q01DX009 (ip), vehicle: saline 90 % of control | endpoint: mean survival time, dose: 480.0 mg/kg/injection, schedule: Q01DX009 (ip), vehicle: saline 90 % of control
